Columns and labels:
Type in all cases: cell-based
oral plaque = test: Plaque bacteria plated on blood agar and cultured with or without TPP; conditions: plaque bacteria from four human subjects on blood agar, various concentrations of TPP
Procedure: Dental plaque is a biofilm that builds up on teeth and contains bacteria associated with cavities, gingivitis, and periodontitis. Plaque samples were obtained from four human subjects. Plaque bacteria from each subject was plated on blood agar and cultured in the presence or absence of various concentrations of Sodium tripolyphospate (TPP), which inhibits Cob(I)alamin adenosyltransferase.

oral microbial community = test: Principal component analysis of active community composition by 16S rRNA genes from cultures of plaque; conditions: cultures of plaque from a human subject, samples at 0, 3, 9 and 18 hours, all concentrations
Procedure: Principal component analysis was used to analyze changes in oral microbial community composition. Results of an analysis of the active community composition isolated from a human subject was carried out by analysis of 16S rRNA genes from cultures of plaque. The panel of species identified included 500 different species. Samples from the culture were taken at 0, 3, 9 and 18 hours.

Rothia dentocariosa = test: Active fraction of microbes by rRNA analysis in liquid culture of oral plaque; conditions: TPP at concentrations as low as 25 mM
Description: (§1) Oral plaque containing Streptococcus sanguinis was obtained from a human subject and cultured in liquid culture in the presence or absence of TPP. S. sanguinis is a gram positive bacteria that binds to the surface if the teeth, where it acts as a tether for the attachment of other bacteria that form dental plaque, and contributes to the development of caries and periodontal disease. S. Sangunis has all of the genes required for anaerobic cobalamin biosynthesis.
(§2) Microbes exist in a range of metabolic states (e.g., dormant, active and growing) and analysis of ribosomal RNA (rRNA) is frequently employed to identify the ‘active’ fraction of microbes in samples. […] This is of particular interest given that other bacterial species may utilize and or depend on the cobalamin synthesized by S. Sanguinis, thus making this species a keystone esential to maintain a mature biofilm.

S. Genus probe 1 = test: as above; conditions: TPP at concentrations as low as 25 mM
Description: as §1, §2

S. intermedius = test: as above; conditions: TPP at concentrations as low as 25 mM
Description: as §1, §2

Solobacterium moorei = test: as above; conditions: TPP at concentrations as low as 25 mM
Description: as §1, §2

Streptococcus sanguinis = test: as above; conditions: three hours of incubation
Description: as §1, §2

Structure (SMILES): O=P(O)(O)OP(=O)(O)OP(=O)(O)O [TPP, sodium tripolyphosphate]
- oral plaque growth (oral plaque): completely inhibited oral plaque growth in a dose dependent manner
- change in composition of bacterial communities (oral microbial community): affected all of the bacterial communities in similar ways at all concentrations
- activity of Rothia dentocariosa (Rothia dentocariosa): significantly reduced
- activity of S. Genus probe 1 (S. Genus probe 1): significantly reduced
- activity of S. intermedius (S. intermedius): significantly reduced
- activity of Solobacterium moorei (Solobacterium moorei): significantly reduced
- fraction of active S. Sanguinis vs control with no TPP (Streptococcus sanguinis; 25 mM TPP): significantly lower
- fraction of active S. Sanguinis vs control with no TPP (Streptococcus sanguinis; 50 mM TPP): significantly lower

Reference: patent US20180110795A1, “COMPOSITIONS AND METHODS FOR DETECTING AND TREATING PERIODONTAL DISEASE” (THE FORSYTH INSTITUTE, priority 2015, published 2018)
